Reference: patent US20040009947A1, “Compounds and methods for enhancing delivery of free polynucleotide” (priority 1998, published 2004)
“Also recorded” adds a separate entry of the source. Where a name gives a salt, the structure may show the parent alone.

Assays:
[1] = tested on: mouse lung; assay: Intratracheal plasmid transfection of mouse lung, luciferase reporter assay of lung homogenate; type: in vivo; settings: for Level of reporter protein expression after intratracheal administration of plasmid, enhancement by co-administration: intratracheal plasmid with DNAse inhibitor, mouse lung
[2] = tested on: NIH3T3; assay: Transfection of cultured cells with DNA/DOTAP +/- ATA, luciferase assay; type: cell-based; settings: very highest doses 80 μg/ml, 40 μg/ml, 10 μg/ml
Experimental: NIH3T3 (ATCC CRL 1658) were grown in Dulbecco's Modified Eagle's Medium and 10% calf serum. NIH3T3 were also plated at a density of 5×10^4 cells/ml in 24 well plates 24 hours prior to transfection and cells were transfected as subconfluent monolayer.
The sequential addition of appropriate amounts of serum-free DMEM, plasmid DNA ([…]), ATA in serum-free DEM and filter sterilized (see below for doses), and DOTAP (DOTAP:DNA formulation of 5 μg: 1 μg) were pippetted into a 2 ml Eppendorf tube to give a total volume of […] and mixed with a vortex mixer. A […] aliquot of the resultant transfection complex was added to each well of the cells above after the cell media had been aspirated off. The cells were incubated for 2 hours at 37° C. At the two hour time point, the mixture was removed and one ml of culture media was added to each well. […]
(§1) Relative luciferase activity was determined using the Enhanced Luciferase Assay Kit and Monolight 2010 luminometer (Analytical Luminescence Laboratories, San Diego, Calif.). […] For In vitro experiments, luciferase light emissions from 20 μl of the cell lysate were measured over a 10 second period, and results expressed as a function of the total lysate volume. For in vivo experiments, luciferase light emissions from […] of the lysate were measured over a 10 second period, and results expressed as a function of the total lysate volume.

[3] = tested on: macaque respiratory tissues; assay: Bronchoscopic administration of plasmid +/- ATA to macaque lung, luciferase assay and histology; type: in vivo; settings: 48 hours after treatment, H&E
Experimental: Extending the experiment from murine to nonhuman primate respiratory tissues, the activity of ‘free’ plasmid DNA +/− ATA in macaque respiratory tissues using male rhesus macaques was tested. Initially, the lavage fluid is tested for DNAse activity +/− ATA by incubation with plasmid after which gel electrophoresis is performed as described above with murine lung lavage samples. After a 70 day quarantine, the animals are treated using three general techniques. For direct administration of […] to pulmonary parenchyma, macaques are anesthetized (ketamine, veterinarian assisted) and a pediatric bronchoscope will be passed per nasum with direct visualization of the bronchial tree. Typically, plasmid preparations (3 ml/Kg macaque weight) or related treatments (plasmid/ATA mixtures etc.) are instilled directly via the bronchoscope into the right lower lobe. The left upper lobe of the same macaque is used as an internal control. […]
As described above, relative luciferase activity is determined using the Enhanced Luciferase Assay Kit and a Monolight 2010 luminometer (both from Analytical Luminescence Laboratories, San Diego, Calif.). […] Luciferase light emissions from 31 microliters of the lysate are measured over a 10 second period, and results are expressed as a function of total protein, total tissue mass, and total DNA dose.

[4] = tested on: 16HBE14o; assay: Transfection of cultured cells with DNA/DOTAP +/- ATA, luciferase assay; type: cell-based, human; settings: very highest doses 80 μg/ml, 40 μg/ml, 10 μg/ml
Experimental: The human respiratory epithelial cell line, 16HBE14o (Dieter Grunert, UCSF) was cultured on flasks coated with fibronectin (Collaborative Research-Bectin Dickinson), vitrogen (Collagen Corp), basal media (Biofluids, Inc.) and bovine serum albumen (Biofluids, Inc.) as previously described [Gruenert, 1990 #7; Cozens, 1994 #8]. Cells were cultured on twenty four well tissue culture plates (Corning) coated with the above mixture. Culture media was Eagle's modified essential medium (EM) supplemented with 10% fetal bovine serum. 16HBE 14o cells were plated at a density of 5×10^4 cells/ml 24 hours prior to transfection and cells were transfected as subconfluent monolayer. […]
as §1

[5] = Toxicity of intratracheal ATA/plasmid in mice (lethality, health assessment, lung histology); type: in vivo, mouse; settings: for mice died: within 8 to 24 hours, pilot experiments
Experimental: Dose-response experiments can be used to efficacy, toxicity, and effective dose of a particular enhancing agent or polynucleotide preparation. […] Histologic evaluation of treated lung tissue was subsequently performed. […] ATA is often employed for inhibition of cultured cell apoptosis, but relatively few publications describe in vivo applications. In vivo dosing employed in published reports ranges from 4 micrograms administered to the […] cerebral ventricle of gerbils to 10 mg/kg/hour continuous infusion in a hamster carotid stenosis model Based on this literature, a dose range from 0.1 mg/kg to 8 mg/kg ATA administered with 100 micrograms of plasmid was tested. […] Subsequent histologic examination was performed using lung tissue obtained from mice treated with up to 5 mg/kg ATA.
To obtain information about toxicity, mouse lung tissue was treated with ATA +/− plasmid and routine histologic analyses were performed. […] Therefore, intratracheal instillation of plasmid +/− ATA was performed, and two days later the treated tissues were histologically analyzed after inflation and fixation in formalin followed by routine hematoxylin and eosin staining in paraffin sections. Treatment groups included untreated controls, 100 μl of water for injection (WFI), 100 μg of pND2Lux diluted in WFI, and plasmid with […] body mass diluted in WFI. The images shown in FIG. 9 are representative photomicroscopic fields that include both conducting airway and pulmonary parenchyma.

[6] = tested on: Macaque Skin; assay: Intradermal injection of luciferase DNA into macaque skin +/- ATA; type: in vivo; settings: 100 μg plasmid and 50 μg ATA intradermal versus plasmid alone
Experimental: To further confirm the utility of nuclease inhibitors in combination with direct DNA delivery, the activity of free plasmid DNA +/− ATA in skin tissues was tested. The plasmid and animal protocols were identical to those described above. Intradermal injections were performed by injecting 100 μl solutions using 30 gauge needle.
The experiment was further extended from murine to primate, testing direct intradermal injection on macaques. The control solution was identical to that described for the mice and rat protocols. The test solution contained 100 μg of pND21ux plasmid and 50 μg of ATA in 100 μl water. Ten macaques were included in the control group and twelve were included in the test group.

Compound: O=C(O)C1=CC(=C(c2ccc(O)c(C(=O)O)c2)c2ccc(O)c(C(=O)O)c2)C=CC1=O [ATA, aurin tricarboxylic acid]
- increase over free DNA transfections ([1]; doses of ATA virtually nontoxic to the lung): 57%
- Toxicity to cells [2]: toxic and killed cells
- Histologically apparent acute toxicity [3]: lack of histologically apparent acute toxicity
- Toxicity to cells [4]: toxic and killed cells
- lethality due to the ATA ([5]; 2 mg/kg ATA or lower doses, during the 48 hours after treatment): no lethality
- mice died ([5]; 6 mg/kg ATA intratracheal with 100 micrograms plasmid): 50%
- mice died ([5]; 8 mg/kg ATA intratracheal with 100 micrograms plasmid): 100%
- pulmonary dose associated with significant mortality ([5]; intratracheal, mouse): > 2 μg/g body weight
- Lung histology (H&E) after intratracheal plasmid +/- ATA ([5]; mouse lung, two days after treatment, plasmid with 0.5 or 6 mg ATA/g body mass): indistinguishable; also recorded: virtually nontoxic to the lung; also recorded: No significant histologic alterations
- Health assessment of mice after transfection ([5]; up to 48 hours after transfection): healthy with no physical or behavioral side effects observed
- enhancement of reporter gene expression, test group on average [6]: 11 fold

Compound: O=C(O)CN(CCN(CC(=O)O)CC(=O)O)CC(=O)O [EDTA, ethylenediaminetetraacetic acid]
- Level of reporter protein expression after intratracheal administration of plasmid, enhancement by co-administration [1]: Neither EDTA nor citrate significantly enhanced the level of expression

Compound: O=C(O)CC(O)(CC(=O)O)C(=O)O [sodium citrate]
- Level of reporter protein expression after intratracheal administration of plasmid, enhancement by co-administration ([1]; listed as citrate): Neither EDTA nor citrate significantly enhanced the level of expression
